The subject of series [1] is Plasmodium falciparum. The series can be described thus: Antiplasmodial activity against […] Plasmodium falciparum NF54 assessed as parasite growth inhibition at 5 uM incubated for 48 hrs by luciferase based analysis relative to control. Type of series: functional.
The subject of series [2] is Plasmodium berghei. The series can be described thus: Antiplasmodial activity against […] Plasmodium berghei infected in mouse model assessed as parasite growth inhibition at 10 uM pre-infected mouse with parasite followed by blood collection from mouse and subsequent addition of compound in blood measured after 24 hrs by nano-luciferase based analysis relative to control. The conditions noted are these: read-out: INH. Type of series: functional.

The test system of series [3] is Plasmodium falciparum. The series can be described thus: Antiplasmodial activity against asexual blood-stage CQ-sensitive Plasmodium falciparum 3D7 infected in RBC assessed as parasite growth reduction incubated for 72 hrs by SybrGreen dye based analysis. Type of series: functional, organism-based. Particulars: 3D7, Erythrocyte.
The nature of series [4]: Cytotoxicity against African green monkey COS-7 cells incubated for 72 hrs by MTT assay. Type of series: toxicity, cell-based. The conditions noted are these: chlorocebus aethiops.
The nature of series [5]: Cytotoxicity against human HepG2 cells incubated for 72 hrs by MTT assay. Type of series: toxicity, cell-based. Background: Tetrazolium dyes change colour on reduction, which living cells bring about.
The test system of series [6] is Plasmodium falciparum. Briefly: Antiplasmodial activity against asexual blood-stage CQ-sensitive Plasmodium falciparum 3D7 infected in RBC assessed as parasite growth inhibition at 5 uM incubated for 72 hrs by SybrGreen dye based analysis relative to control. Type of series: functional. The conditions noted are these: 3D7, Erythrocyte.
Series [7] concerns Plasmodium falciparum. Briefly: Antiplasmodial activity against asexual blood-stage multidrug-resistant Plasmodium falciparum Dd2 infected in RBC assessed as parasite growth inhibition at 5 uM incubated for 72 hrs by SybrGreen dye based analysis relative to control. Type of series: functional. The conditions noted are these: Dd2, Erythrocyte.
Series [8] has as its system Plasmodium berghei. The series can be described thus: Antiplasmodial activity against asexual liver schizonts-stage Plasmodium berghei infected in human Huh-7 cells assessed as parasite growth inhibition at 10 uM pretreated parasite with compound for 1 hr followed by parasitic infection in cells for 46 hrs by bioluminescence assay relative to control. Type of series: functional.

The subject of series [9] is Plasmodium falciparum. The series can be described thus: Antiplasmodial activity against asexual blood-stage multidrug-resistant Plasmodium falciparum Dd2 infected in RBC assessed as parasite growth reduction incubated for 72 hrs by SybrGreen dye based analysis. Type of series: functional, organism-based. The conditions noted are these: Dd2, Erythrocyte.
A short description of series [10]: Selectivity index, ratio of CC50 for African green monkey COS-7 cells to EC50 for asexual blood-stage CQ-sensitive Plasmodium falciparum 3D7 infected in RBC. Particulars: read-out: Ratio CC50/EC50. Type of series: toxicity.
Series [11] is described as follows: Selectivity index, ratio of CC50 for human HepG2 cells to EC50 for asexual blood-stage chloroquine-sensitive Plasmodium falciparum 3D7 infected in RBC.

The structures appear in SMILES notation.

The values below come from ChEMBL document CHEMBL5608229, “Innovative Multistage ML-QSAR Models for Malaria: From Data to Discovery” (ACS Med Chem Lett, 2024).

As a reminder, the inhibition is how much of the control response was suppressed. As a reminder, the EC50 is the concentration at which the effect is half-maximal. What is called CC50 is the concentration at which the toxic effect on the cells reaches its halfway point. For `Clc1ccc(-c2nc(Nc3ccc(I)cc3)c3ccccc3n2)cc1`, in series [1], the inhibition at 5 µM is 6%. In addition, the percent ookinete growth inhibition (ex vivo) at 10 µM in series [2] worked out at 44.7%. For the same molecule, the half-maximal effective concentration (EC50) in series [3] was over 10 µM. Besides, the CC50 at 72 h came to 51.5 µM in series [4] and 34.8 µM in series [5].

Take `CN(C)CCCN(CCCN(C)C)Cc1cccc2ccccc12`: the inhibition at 5 µM was over 50% in series [6], over 50% in series [7] and 33% in series [1]. In addition, the percent ookinete growth inhibition (ex vivo) at 10 µM in series [2] is 3.26%. For the same molecule, the inhibition at 10 µM in [8] stood at 0%. Besides, the EC50 is 5.46 µM in series [3] and 2.64 µM in [9]. The CC50 at 72 h in series [4] and in [5] was over 100 µM each time. Besides, the selectivity ratio in series [10] and in [11] was over 18 throughout.

For the molecule `CCc1ccc(C2CC(=O)C3=C(C2)NC(C)=C(C(=O)OCCc2ccccc2)C3c2ccncc2)cc1` (configuration not stated), in series [1], the inhibition at 5 µM is 14%. Further, the percent ookinete growth inhibition (ex vivo) at 10 µM in series [2] amounted to 11%. Further, the inhibition at 10 µM in [8] was 92.2%. Further, the EC50 in [3] worked out at 13.5 µM. The values for the CC50 at 72 h in [4] and in series [5] were 125 µM and 54.4 µM, respectively. For the same molecule, the selectivity ratio in series [10] was found to be 9; in series [11] it was 4.

As for `c1ccc(CCN2CCC(NC34CC5CC(CC(C5)C3)C4)CC2)cc1`, the inhibition at 5 µM in [6] was over 90%; in series [7] it was over 90%; in series [1], 86%. In [2], the percent ookinete growth inhibition (ex vivo) at 10 µM was 16%. Besides, the inhibition at 10 µM in series [8] stood at 0%. The EC50 in series [3] is 1.78 µM; in [9], 0.43 µM. Besides, the values for the 50% cytotoxic concentration (CC50) at 72 h in [4] and in series [5] were 48.3 µM and 38.1 µM, respectively. For the same molecule, the selectivity ratio was determined as 27 in series [10] and 21 in series [11].

With `COc1cc2nnc(NCC3(N(C)C)CCCCC3)nc2cc1OC`, the inhibition at 5 µM in series [6] is over 50%; in series [7], over 50%; in [1], 94%. For the same molecule, in series [2], the percent ookinete growth inhibition (ex vivo) at 10 µM stood at 65.3%. Further, in [8], the inhibition at 10 µM was found to be 0%. For the same molecule, the half-maximal effective concentration (EC50) is 0.65 µM in series [3] and 2.65 µM in series [9]. For the same molecule, the CC50 at 72 h in [4] worked out at 51 µM; in [5] it was 93.1 µM. The selectivity ratio in series [10] came to 78; in [11] it was 142.

As for `Oc1c(CN2CCCCC2)cc(CN2CCCCC2)nc1-c1ccccc1`, the inhibition at 5 µM in [6] was over 50%; in series [7], over 50%; in [1], 51%. The percent ookinete growth inhibition (ex vivo) at 10 µM in series [2] was determined as 0%. Besides, the inhibition at 10 µM in series [8] was 0%. The EC50 came out at 1.55 µM in series [3] and 1.65 µM in series [9]. Also, the CC50 at 72 h in [4] and in [5] was over 100 µM throughout. The selectivity ratio in series [10] and in series [11] was over 64 throughout.

Take `COc1cc2nc(NCCc3nc(=O)c4c(C)c(C)sc4[nH]3)nc(N)c2cc1OC`: the inhibition at 5 µM is at least 50% in series [6], at least 50% in series [7] and 94% in series [1]. Besides, in series [2], the percent ookinete growth inhibition (ex vivo) at 10 µM was 65%. Also, the inhibition at 10 µM in series [8] was 90.3%. Besides, the EC50 in series [3] is 1.38 µM; in [9], 3.67 µM. Moreover, the CC50 at 72 h in [4] amounted to 12.3 µM; in [5], 13.6 µM. The figures for the selectivity ratio in [10] and in [11] were 9 and 9.9, respectively.

In the case of `C=CCc1cc(CN2CCC3(CC2)CN(C)CCN3C)ccc1O`, the values for the inhibition at 5 µM in series [6], in series [7] and in [1] were over 50%, over 50% and 51%, respectively. In addition, the percent ookinete growth inhibition (ex vivo) at 10 µM in series [2] is 5.43%. Moreover, the inhibition at 10 µM in series [8] amounted to 0%. The results for the EC50 in series [3] and in series [9] were 1.49 µM and 2.59 µM, respectively. Moreover, the CC50 at 72 h in [4] and in [5] was over 100 µM in each case. Further, the selectivity ratio in [10] and in [11] was over 67 throughout.

Regarding `c1ccc2c(CCNC34CC5CC(CC(C5)C3)C4)c[nH]c2c1`, the inhibition at 5 µM in [1] was found to be 12%. Also, the inhibition at 10 µM in series [8] worked out at 0%. In [3], the EC50 was determined as 11.8 µM. The CC50 at 72 h in series [4] is 77.3 µM; in series [5] it was 53.1 µM. Further, the selectivity ratio in series [10] is 7; in series [11] it was 4.5.

Turning to `c1ccc(C23CN4CCN(CC(C4)C2NCc2ccc4c(c2)OCCO4)C3)cc1` (configuration not stated), the inhibition at 5 µM in series [1] worked out at 6%. Further, the percent ookinete growth inhibition (ex vivo) at 10 µM in series [2] was determined as 0%. Moreover, the inhibition at 10 µM in series [8] was found to be 0%. Further, the EC50 in series [3] was over 10 µM. Also, the CC50 at 72 h in [4] and in series [5] was over 100 µM each time.

Regarding `COCCCNCCCCOc1ccc2ccccc2c1Br`, the figures for the inhibition at 5 µM in series [6], in series [7] and in series [1] were at least 50%, at least 50% and 51.3%, respectively. For the same molecule, in [2], the percent ookinete growth inhibition (ex vivo) at 10 µM is 66.1%. Further, the inhibition at 10 µM in series [8] amounted to 49.4%. The EC50 amounted to 3.04 µM in series [3] and 1.12 µM in series [9]. The figures for the CC50 at 72 h in [4] and in [5] were 11 µM and 10.4 µM, respectively. Further, the results for the selectivity ratio in series [10] and in [11] were 2.7 and 3.4, respectively.

As to `Cc1ccc(Nc2nc(-c3ccccc3Cl)nc3ccccc23)cc1`, in series [1], the inhibition at 5 µM stood at 1%. For the same molecule, the percent ookinete growth inhibition (ex vivo) at 10 µM in series [2] was found to be 45.6%. Moreover, the EC50 in series [3] was over 10 µM. In addition, the results for the CC50 at 72 h in series [4] and in [5] were 42.8 µM and 33.2 µM, respectively.

For `c1ccc2c(CCNC3CC4CCC3C4)c[nH]c2c1` (configuration not stated), in series [1], the inhibition at 5 µM is 11.5%. Besides, the inhibition at 10 µM in [8] was determined as 0%. Besides, in [3], the concentration giving a half-maximal response (EC50) was over 10 µM. Also, the CC50 at 72 h in [4] and in [5] was over 100 µM each time.

Take `COc1ccc(CN2CCCC(CO)(Cc3ccccc3)C2)c(C)c1C` (configuration not stated): the inhibition at 5 µM in series [1] turned out to be 13.5%. Moreover, in series [2], the percent ookinete growth inhibition (ex vivo) at 10 µM turned out to be 42.7%. The inhibition at 10 µM in series [8] was 73.9%. In [3], the EC50 was over 10 µM. Also, the CC50 at 72 h is 50.4 µM in [4] and 44.1 µM in [5].

Turning to `CCCOc1c(Br)cc(C2C3=C(CCCC3=O)NC3=C2C(=O)CCC3)cc1OC`, the inhibition at 5 µM in [1] is 9.5%. Besides, the percent ookinete growth inhibition (ex vivo) at 10 µM in series [2] stood at 56.8%. Moreover, the inhibition at 10 µM in series [8] was 6.96%. In addition, the EC50 in [3] was over 10 µM. The CC50 at 72 h in series [4] came to 56.4 µM; in series [5], 30.5 µM.

For the molecule `c1ccc(C23CN4CCN(CC(C4)C2NCc2nc4ccccc4[nH]2)C3)cc1` (configuration not stated), the inhibition at 5 µM in series [1] amounted to 20%. Further, the percent ookinete growth inhibition (ex vivo) at 10 µM in series [2] was 56%. The inhibition at 10 µM in series [8] came out at 0%. Moreover, the EC50 in [3] is over 10 µM. For the same molecule, the CC50 at 72 h in [4] and in [5] was over 100 µM throughout.

As to `C[C@H]1[C@H](OC(=O)CCC(=O)O)O[C@@H]2O[C@@]3(C)CC[C@H]4[C@H](C)CC[C@@H]1[C@@]24OO3` [ARTESUNATE], the EC50 in series [3] and in series [9] was 0.002 µM in each case.

Regarding `CCN(CC)CCCC(C)Nc1ccnc2cc(Cl)ccc12` (configuration not stated) [CHLOROQUINE], the values for the EC50 in [3] and in series [9] were 0.008 µM and 0.055 µM, respectively.

As to `CCc1nc(N)nc(N)c1-c1ccc(Cl)cc1` [PYRIMETHAMINE], the EC50 in series [3] worked out at 0.039 µM; in series [9], 6.01 µM.
